Structures are written as SMILES.

This is an account of results in patent US10874743B2, “IRAK degraders and uses thereof” (Kymera Therapeutics, Inc., priority 2017, dated 2020).

The target in this test is T1, IRAK4 (Homo sapiens, UniProt Q9NWZ3).
T1 sequence (Q9NWZ3 1-460): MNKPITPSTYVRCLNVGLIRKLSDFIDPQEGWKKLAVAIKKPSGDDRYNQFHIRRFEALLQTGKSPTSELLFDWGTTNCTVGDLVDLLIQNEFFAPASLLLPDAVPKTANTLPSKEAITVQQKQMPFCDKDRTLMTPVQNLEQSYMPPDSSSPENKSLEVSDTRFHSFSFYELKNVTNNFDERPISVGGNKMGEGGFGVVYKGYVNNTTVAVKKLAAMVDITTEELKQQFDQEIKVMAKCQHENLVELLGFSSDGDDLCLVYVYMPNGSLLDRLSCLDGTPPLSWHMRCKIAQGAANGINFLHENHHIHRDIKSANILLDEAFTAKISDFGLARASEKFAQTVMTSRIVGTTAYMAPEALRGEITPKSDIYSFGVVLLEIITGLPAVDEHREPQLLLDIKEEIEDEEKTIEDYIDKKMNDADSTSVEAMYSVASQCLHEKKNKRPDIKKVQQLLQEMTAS
Kind of test: PBMC degradation assay (western blot, % IRAK4 degraded after 4 hours). It is filed as cell-based. The conditions noted are these: human PBMCs. Here is the method: Protocol summary of PBMC degradation studies from compound treatment through quantitation.
PBMC culture medium: Human peripheral blood mononuclear cells (PBMCs): RPMI+10% FBS (Heat-inactivated)+1% P/S.
Cells were cultured at a minimum of 2.5×10^6 c/mL. • PBMCs were incubated @ 37° C./5% CO2 and allowed to rest overnight. • Following overnight recovery, a cell count/viability assessment by trypan blue exclusion was performed. Cells densities were adjusted back to 2.5×10^6 c/mL (proceed with plating only if viability >80%). • In a 6 well plate, 2.0 mL of cells were added to each well for a minimum of 5×10^6 CT per treatment condition. Compounds dilutions were prepared from 20 mM stock and were added at a final 1000× dilution (0.1% DMSO concentration). • At the end of treatment, cells were harvested and spun @ 1800 rpm for 5 min. 1×PBS wash and spun again @ 1800 rpm for 5 min. Cell pellets were frozen and stored at −80° C. until further processing. • Lysates were generated by resuspending in lysis buffer. Protein quantification was performed with a BCA kit. • 20 μg of protein were loaded per lane and run on a 26-well 4-12% Bis-Tris SDS-page gel. • Transfers were performed on PVDF membranes using the BioRad Mixed MW turbo program for 7 min. • Membranes were blocked for one hour on a rocker at room temperature. • Primary antibodies were incubated overnight at 4° C. on a rocker. • Membranes were washed 3×TBST, 5 min each. • Secondaries were added and incubated for one hour on a rocker at room temperature. • Membranes were washed 3×TBST, 5 min each and rinsed well with deionized H2O. Membranes were scanned using the Licor Odessey CLx and bands were quantified using Image Studio Lite Version 5.2 software.
PBMC results at 4 hours. The letter codes indicate the percentage of IRAK4 degraded after 4 hours: A (>50% degradation), B (>20-50% degradation) and C (<20% degradation)
Turning to `NC(=O)c1nn(-c2ccc(C(=O)NCCNCCCCCNc3cccc4c3C(=O)N(C3CCC(=O)NC3=O)C4=O)cc2)cc1NC(=O)c1coc(-c2ccnc(NCC(F)(F)F)c2)n1` (stereo not drawn) [I-144, N-[3-carbamoyl-1-[4-[2-[5-[[2-(2,6-dioxo-3-piperidyl)-1,3-dioxo-isoindolin-4-yl]amino]pentylamino]ethylcarbamoyl]phenyl]pyrazol-4-yl]-2-[2-(2,2,2-trifluoroethylamino)-4-pyridyl]oxazole-4-carboxamide], the “PBMC % IRAK4 Degradation” value is “A (>50% degradation)”.
With `NC(=O)c1nn(-c2ccc(C(=O)NCCC#CC#CCCNc3cccc4c3C(=O)N(C3CCC(=O)NC3=O)C4=O)cc2)cc1NC(=O)c1coc(-c2ccnc(NCC(F)(F)F)c2)n1` (stereo not drawn) [I-179, N-[3-carbamoyl-1-[4-[8-[[2-(2,6-dioxo-3-piperidyl)-1,3-dioxo-isoindolin-4-yl]amino]octa-3,5-diynylcarbamoyl]phenyl]pyrazol-4-yl]-2-[2-(2,2,2-trifluoroethylamino)-4-pyridyl]oxazole-4-carboxamide], the “PBMC % IRAK4 Degradation” value is given as “C (<20% degradation)”.
As to `NC(=O)c1nn(C2CCN(C(=O)COCCOCCOCCNc3cccc4c3C(=O)N(C3CCC(=O)NC3=O)C4=O)CC2)cc1NC(=O)c1coc(-c2ccnc(NCC(F)(F)F)c2)n1` (stereo not drawn) [I-152, N-[3-carbamoyl-1-[1-[2-[2-[2-[2-[[2-(2,6-dioxo-3-piperidyl)-1,3-dioxo-isoindolin-4-yl]amino]ethoxy]ethoxy]ethoxy]acetyl]-4-piperidyl]pyrazol-4-yl]-2-[2-(2,2,2-trifluoroethylamino)-4-pyridyl]oxazole-4-carboxamide], the “PBMC % IRAK4 Degradation” value was “C (<20% degradation)”.
With `NC(=O)c1nn(-c2ccc(C(=O)NCCOCCOCCOCCNC(=O)COc3cccc4c3C(=O)N(C3CCC(=O)NC3=O)C4=O)cc2)cc1NC(=O)c1coc(-c2ccnc(NCC(F)(F)F)c2)n1` (stereo not drawn) [I-108], the “PBMC % IRAK4 Degradation” value was “C (<20% degradation)”.
For the molecule `NC(=O)c1nn(-c2ccc(CNCCOCCOCCNc3cccc4c3C(=O)N(C3CCC(=O)NC3=O)C4=O)cc2)cc1NC(=O)c1coc(-c2ccnc(NCC(F)(F)F)c2)n1` (stereo not drawn) [I-171, N-[3-carbamoyl-1-[4-[[2-[2-[2-[[2-(2,6-dioxo-3-piperidyl)-1,3-dioxo-isoindolin-4-yl]amino]ethoxy]ethoxy]ethylamino]methyl]phenyl]pyrazol-4-yl]-2-[2-(2,2,2-trifluoroethylamino)-4-pyridyl]oxazole-4-carboxamide], the “PBMC % IRAK4 Degradation” value was “A (>50% degradation)”.
For the molecule `NC(=O)c1nn(-c2ccc(C(=O)NCCOCCOCCOCCNc3cccc4c3C(=O)N(C3CCC(=O)NC3=O)C4=O)cc2)cc1NC(=O)c1coc(-c2ccnc(NCC(F)(F)F)c2)n1` (stereo not drawn) [I-128], the “PBMC % IRAK4 Degradation” value is “A (>50% degradation)”.
Under `NC(=O)c1nn(-c2ccc(C(=O)NCCOCCCCCOCCNC(=O)COc3cccc4c3C(=O)N(C3CCC(=O)NC3=O)C4=O)cc2)cc1NC(=O)c1coc(-c2ccnc(NCC(F)(F)F)c2)n1` (stereo not drawn) [I-116, N-(3-carbamoyl-1-(4-((2-((5-(2-(2-((2-(2,6-dioxopiperidin-3-yl)-1,3-dioxoisoindolin-4-yl)oxy)acetamido)ethoxy)pentyl)oxy)ethyl)carbamoyl)phenyl)-1H-pyrazol-4-yl)-2-(2-((2,2,2-trifluoroethyl)amino)pyridin-4-yl)oxazole-4-carboxamide] stands “A (>50% degradation)”; under `O=C1CCC(N2C(=O)c3cccc(NCCOCCOCCNCc4cccc(-n5cc(NC(=O)c6coc(-c7ccnc(NCC8CC8)c7)n6)c(C(F)(F)F)n5)c4)c3C2=O)C(=O)N1` (stereo not drawn) [I-186, 2-[2-(Cyclopropylmethylamino)-4-pyridyl]-N-[1-[3-[[2-[2-[2-[[2-(2,6-dioxo-3-piperidyl)-1,3-dioxo-isoindolin-4-yl]amino]ethoxy]ethoxy]ethylamino]methyl]phenyl]-3-(trifluoromethyl)pyrazol-4-yl]oxazole-4-carboxamide], “C (<20% degradation)”; under `NC(=O)c1nn(-c2ccc(C(=O)NCCCCCNC(=O)COc3cccc4c3C(=O)N(C3CCC(=O)NC3=O)C4=O)cc2)cc1NC(=O)c1coc(-c2ccnc(NCC(F)(F)F)c2)n1` (stereo not drawn) [I-106, N-[3-carbamoyl-1-[4-[5-[[2-[2-(2,6-dioxo-3-piperidyl)-1,3-dioxo-isoindolin-4-yl]oxyacetyl]amino]pentylcarbamoyl]phenyl]pyrazol-4-yl]-2-[2-(2,2,2-trifluoroethylamino)-4-pyridyl]oxazole-4-carboxamide], “A (>50% degradation)”.
Regarding `NC(=O)c1nn(-c2ccc(C(=O)NCCCCCCCCCCCNC(=O)COc3cccc4c3C(=O)N(C3CCC(=O)NC3=O)C4=O)cc2)cc1NC(=O)c1coc(-c2ccnc(NCC(F)(F)F)c2)n1` (stereo not drawn) [I-104], the “PBMC % IRAK4 Degradation” value was “C (<20% degradation)”.
Under `NC(=O)c1nn(-c2ccc(C(=O)NCCOCCNC(=O)COc3cccc4c3C(=O)N(C3CCC(=O)NC3=O)C4=O)cc2)cc1NC(=O)c1coc(-c2ccnc(NCC(F)(F)F)c2)n1` (stereo not drawn) [I-110] stands “A (>50% degradation)”.
For the molecule `NC(=O)c1nn(C2CCN(C(=O)NCCOCCOCCNc3cccc4c3C(=O)N(C3CCC(=O)NC3=O)C4=O)CC2)cc1NC(=O)c1coc(-c2ccnc(NCC(F)(F)F)c2)n1` (stereo not drawn) [I-145, N-[3-carbamoyl-1-[1-[2-[2-[2-[[2-(2,6-dioxo-3-piperidyl)-1,3-dioxo-isoindolin-4-yl]amino]ethoxy]ethoxy]ethylcarbamoyl]-4-piperidyl]pyrazol-4-yl]-2-[2-(2,2,2-trifluoroethylamino)-4-pyridyl]oxazole-4-carboxamide], the “PBMC % IRAK4 Degradation” value is on record as “C (<20% degradation)”.
As for `NC(=O)c1nn(-c2ccc(C(=O)NCCOCCNc3cccc4c3C(=O)N(C3CCC(=O)NC3=O)C4=O)cc2)cc1NC(=O)c1coc(-c2ccnc(NCC(F)(F)F)c2)n1` (stereo not drawn) [I-130], the “PBMC % IRAK4 Degradation” value is “A (>50% degradation)”.
As to `NC(=O)c1nn(C2CN(C(=O)COCCOCCOCCNc3cccc4c3C(=O)N(C3CCC(=O)NC3=O)C4=O)C2)cc1NC(=O)c1coc(-c2ccnc(NCC(F)(F)F)c2)n1` (stereo not drawn) [I-158], the “PBMC % IRAK4 Degradation” value is on record as “C (<20% degradation)”.
Consider `NC(=O)c1nn(C2CN(C(=O)COCCOCCNc3cccc4c3C(=O)N(C3CCC(=O)NC3=O)C4=O)C2)cc1NC(=O)c1coc(-c2ccnc(NCC(F)(F)F)c2)n1` (stereo not drawn) [I-156], for which the “PBMC % IRAK4 Degradation” value is on record as “C (<20% degradation)”.
For `NC(=O)c1nn(-c2ccc(C(=O)NCCc3cn(CCCNc4cccc5c4C(=O)N(C4CCC(=O)NC4=O)C5=O)nn3)cc2)cc1NC(=O)c1coc(-c2ccnc(NCC(F)(F)F)c2)n1` (stereo not drawn) [I-181, N-[3-carbamoyl-1-[4-[2-[1-[3-[[2-(2,6-dioxo-3-piperidyl)-1,3-dioxo-isoindolin-4-yl]amino]propyl]triazol-4-yl]ethylcarbamoyl]phenyl]pyrazol-4-yl]-2-[2-(2,2,2-trifluoroethylamino)-4-pyridyl]oxazole-4-carboxamide], the “PBMC % IRAK4 Degradation” value is given as “B (>20-50% degradation)”.
On to `NC(=O)c1nn(-c2ccc(C(=O)NCCCNC(=O)COc3cccc4c3C(=O)N(C3CCC(=O)NC3=O)C4=O)cc2)cc1NC(=O)c1coc(-c2ccnc(NCC(F)(F)F)c2)n1` (stereo not drawn) [I-112], for which the “PBMC % IRAK4 Degradation” value is given as “A (>50% degradation)”.
Turning to `NC(=O)c1nn(C2CCN(C(=O)COCCOCCNc3cccc4c3C(=O)N(C3CCC(=O)NC3=O)C4=O)CC2)cc1NC(=O)c1coc(-c2ccnc(NCC(F)(F)F)c2)n1` (stereo not drawn) [I-154], the “PBMC % IRAK4 Degradation” value is on record as “B (>20-50% degradation)”.
